In test [1] the test system is Mycobacterium tuberculosis. Nature of the test: Antitubercular activity against multidrug resistant Mycobacterium tuberculosis. The class given is functional.
In test [2] the test system is Mycobacterium tuberculosis. Nature of the test: Antitubercular activity against low oxygen adapted Mycobacterium tuberculosis H37Rv. The class given is functional.

Values after ≈ are worked out from the molar mass of the structure shown. Some results are limits rather than exact numbers.

Turning to `CC1(C)CCC(NC(=O)c2cc3c(Cl)cc(Cl)cc3[nH]2)CC1`, the MIC in test [1] is < 0.04 µM. Take `COc1ccc(-c2cc(CN3CCSCC3)c(C)n2-c2ccc(F)cc2)cc1`: in test [2], the MIC was 10.1 µM (≈ 4 µg/mL). As for `CC1(C)CCC(NC(=O)c2cc3c(F)cc(F)cc3[nH]2)CC1`, the MIC in test [1] is < 0.04 µM.

In test [2], `Cc1c(CN2CCOCC2)cc(-c2ccc(C(C)C)cc2)n1-c1ccc(F)cc1` gave an MIC of 28.7 µM (≈ 11.3 µg/mL).

By MIC is commonly meant the lowest concentration found to suppress growth.

For the origin of these results see ChEMBL document CHEMBL5244240, “MmpL3 inhibitors as antituberculosis drugs” (Eur J Med Chem, 2020).
